Test results reported in article PMC7177633, “Effective Cellular Transport of Ortho-Halogenated Sulfonamide Derivatives of Metformin Is Related to Improved Antiproliferative Activity and Apoptosis Induction in MCF-7 Cells” (International Journal of Molecular Sciences, 2020).
Where two headings read alike, the source gives them in different places.

Assays:
[1] = test system: OCTs; assay: Inhibition of [14C]choline uptake in MCF-7 cells (competitive inhibition assay); assay type: cell-based, human; settings: mean ± SD (n = 3)
Method: (§1) The following day, after removal of the culture medium, the cells were carefully washed with prewarmed HBSS (Hanks’ balanced salt solution) containing 125 mM NaCl, 4.8 mM KCl, 1.2 mM MgSO4, 1.2 mM KH2PO4, 1.3 mM CaCl2, 5.6 mM glucose and 25 mM HEPES (pH 7.4). […] Then, the cells were washed three times with ice-cold HBSS (500 μL) and were lysed with 250 μL of 0.1-M NaOH in the ice bath, and the lysate was mixed with 1.0 mL of an emulsifier safe cocktail (PerkinElmer, Waltham, MA, USA). The radioactivity was measured by liquid scintillation counting (MicroBeta^2 counter, PerkinElmer, Waltham, MA, USA). The studies were carried out with the use of at least three replicates from the same cell passage.

[2] = test system: OCTs; assay: Inhibition of [14C]choline uptake in MDA-MB-231 cells (competitive inhibition assay); assay type: cell-based, human; settings: mean ± SD (n = 3)
Method: as §1

[3] = test system: MCF-7 cells; assay: Cellular uptake of metformin sulfonamides in MCF-7 cells (HPLC); assay type: in vitro ADME, human; settings: for uptake into MCF-7 cells: 10 min incubation, 37 °C
Method: (§2) The uptake of metformin sulfonamides (1–9) in MCF-7 and MDA-MB-231 cells was studied by incubation of the cells with 10−3000 μmol/L of compounds in 250 μL of prewarmed HBSS buffer at 37 °C for 10 min. Subsequently, the cells were then washed three times with 500 μL of ice-cold HBSS and lysed with 250 μL of 0.1-M NaOH. The samples were collected, centrifuged (5 min, 1400 rpm) and the supernatants were analyzed by the HPLC method. The concentration of each compound in the cells was calculated on the basis of the standard curve prepared by spiking known amounts of every compound on the cell layers in 250 μL of 0.1-M NaOH.
(§3) The concentration of the studied sulfonamides (1–9) was assessed using the HPLC system, consisting of an Agilent 1100 binary pump (Agilent Technologies Inc., Wilmington, DE, USA), an 1100 micro-vacuum degasser, an HP 1050 autosampler and an HP 1050 variable wavelength detector (operated at 235 nm). The chromatographic separations of compounds 1–9 were conducted on an Agilent Zorbax SB-C18 analytical column (4.6 mm × 150 mm, 5 μm) using an isocratic elution of water containing 0.1% formic acid (pH ca. 3.0) and acetonitrile containing 0.1% formic acid with a changing ratio, depending on the compound. The analyses were conducted at room temperature (RT). The detailed procedure of chromatographic analysis was described in our previous paper. The studies were conducted in quadruplicates.
(§4) The protein concentrations in representative wells of each plate were assessed using a Bio-Rad protein assay according to the Bradford method (EnVision, PerkinElmer, Inc., Waltham, MA, USA).

[4] = test system: MDA-MB-231 cells; assay: Cellular uptake of metformin sulfonamides in MDA-MB-231 cells (HPLC); assay type: in vitro ADME, human; settings: for uptake into MDA-MB-231 cells: 800 μmol/L, 10 min incubation, 37 °C
Method: as §2, §3, §4

[5] = test system: MCF-7 cells; assay: Uptake in the presence of OCT and MATE inhibitors, MCF-7 cells; assay type: in vitro ADME, human; settings: for interactions with OCT, PMAT and MATE1 transporters, MCF-7: summary from uptake with inhibitors
Method: (§5) The uptake of sulfonamide derivatives of metformin (1–9) in MCF-7 and MDA-MB-231 cells was studied also in the presence of disopyramide, cimetidine (OCT1 and 3 inhibitors), lopinavir (OCT and PMAT inhibitor) and methenamine (MATE and OCT2 inhibitors). The cells were incubated (37 °C, 10 min) with compounds 1–9 at concentrations of 400 and 800 μmol/L and inhibitors (disopyramide, cimetidine, lopinavir or methenamine) in 250 μL of prewarmed HBSS buffer. The protocol of determination of the compound concentration was as described above.

[6] = test system: MDA-MB-231 cells; assay: Uptake in the presence of OCT and MATE inhibitors, MDA-MB-231 cells; assay type: in vitro ADME, human; settings: for interactions with OCT, PMAT and MATE1 transporters, MDA-MB-231: summary from uptake with inhibitors
Method: as §5

[7] = test system: MCF-7 cells; assay: Cell viability WST-1 assay, MCF-7; assay type: cell-based; settings: Homo sapiens, MCF7; WST-1, 24 h, mean ± SD (n = 6–8); read-out: IC50 inhibition of MCF-7 cells' viability
Method: (§6) The viability of MCF-7 and MDA-MB-231 cells was determined using a colorimetric WST-1 assay (Takara, Takara Bio Europe, Saint-Germain-en-Laye, France). Both cell lines were seeded at a density of 1 × 10^4 per well on 96-well plates and were cultured for 24 h to obtain 70% confluence. The following day, the cells were treated with various concentrations of compounds 1–9 diluted in the cell culture medium ([…]). The cells were incubated with tested compounds or pure medium (control) for 24 h (37 °C, 5% CO2). Afterwards, the cells were washed with 100 μL of culture medium, and then, the reagent dissolved in the medium was added (100 μL). The plates were incubated at the standard condition for 1.5 h, and the absorbance was read at 450 nm using a microplate reader (iMARK, Bio-Rad, Bio-Rad Laboratories Inc., Hercules, CA, USA). […] The results of samples treated with the test compounds were expressed as a percentage of the control samples. The data were presented as mean ± standard deviation (SD), n = 8. IC50 values (the concentration of the tested compound that inhibited cell growth by 50%) were calculated using a concentration-response curve (GraphPad Prism, Software, San Diego, CA, USA).
(§7) The concentrations contributing to the 50% of cell growth inhibition (IC50) were calculated using nonlinear regression analysis (fitting the curve to log (concentration) vs. cellular response).

[8] = test system: MDA-MB-231 cells; assay: Cell viability WST-1 assay, MDA-MB-231; assay type: cell-based; settings: Homo sapiens, WST-1, 24 h; for IC50: MDA-MB-231, mean ± SD (n = 6–8), read-out: IC50 inhibition of MDA-MB-231 cells' viability; for viability at 3000 µM: MDA-MB-231, 24 h, 3000 µmol/L, read-out: percentage of viability of MDA-MB-231 cells
Method: as §6, §7

[9] = Eadie-Hofstee analysis, transporter I
[10] = Eadie-Hofstee analysis, transporter I, read-out: Km, transporter I, MCF-7
[11] = Eadie-Hofstee analysis, transporter II
[12] = Eadie-Hofstee analysis, transporter II, read-out: Km, transporter II, MCF-7
[13] = Michaelis-Menten curve, read-out: Km MCF-7 (Michaelis Menten curves)
[14] = Eadie-Hofstee analysis, transporter I, read-out: Km, transporter I, MDA-MB-231
[15] = Eadie-Hofstee analysis, transporter II, read-out: Km, transporter II, MDA-MB-231
[16] = Michaelis-Menten curve, read-out: Km MDA-231 cells (Michaelis Menten curves)
[17] = compound and inhibitor 400 and 800 µmol/L, 10 min, 37 °C

SMILES	IC50 [1]	IC50 [2]	uptake into MCF-7 cells ([3]; 800 μmol/L)	Vmax, transporter I, MCF-7 [3, 9]	Km [3, 10]	Vmax, transporter II, MCF-7 [3, 11]	Km [3, 12]	Vmax MCF-7 (Michaelis Menten curves) ([3]; Michaelis-Menten curve)	Vmax, transporter I, MDA-MB-231 [4, 9]	Km [4, 14]	Vmax, transporter II, MDA-MB-231 [4, 11]	Km [4, 15]	Vmax MDA-231 cells (Michaelis Menten curves) ([4]; Michaelis-Menten curve)	Km [4, 16]	uptake in the presence of disopyramide, MCF-7 [5, 17]	uptake in the presence of lopinavir, MCF-7 [5, 17]	interactions with OCT, PMAT and MATE1 transporters, MCF-7 [5]	interactions with OCT, PMAT and MATE1 transporters, MDA-MB-231 [6]	IC50 [7]	viability at 3000 µM [8]	also measured
CN(C)C(=N)N=C(N)NS(=O)(=O)c1cccc(Cl)c1 [Compound 2]	2.923 ± 0.0091 mM	4.449 ± 0.0181 mM	2.669 ± 0.040 nmol/min/mg protein	19.2 ± 2.31 nmol/min/mg	4.01 ± 0.696 mM	24.91 ± 5.44 nmol/min/mg	7.47 ± 1.82 mM	34.4 ± 17.2 nmol/min/mg	0.077 ± 0.008 nmol/min/mg	2.4 ± 0.353 mM	0.111 ± 0.016 nmol/min/mg	5.47 ± 0.73 mM	0.157 ± 0.129 nmol/min/mg	6.75 ± 1.73 mM	profoundly elevated	profoundly elevated	OCT1, OCT3, PMAT	OCT1, OCT3	533 ± 87.4 µM	–	Km [3, 13]: 9.05 ± 1.52 mM; uptake in MCF-7 cells relative to metformin ([3]; fold higher than parent drug metformin, 800 μmol/L): approximately 25 fold; uptake in the presence of cimetidine, MCF-7 [5, 17]: inhibited; uptake in the presence of cimetidine, MDA-MB-231 [6, 17]: no significant differences; uptake in the presence of disopyramide, MDA-MB-231 [6, 17]: no significant differences; uptake in the presence of lopinavir, MDA-MB-231 [6, 17]: no significant differences; uptake in the presence of methenamine, MDA-MB-231 [6, 17]: no significant differences; IC50 [8]: 0.844 ± 0.135 mM
CN(C)C(=N)N=C(N)NS(=O)(=O)c1cccc(Br)c1 [Compound 5]	0.888 ± 0.0114 mM	0.593 ± 0.015 mM	–	1.635 ± 0.21 nmol/min/mg	3.62 ± 0.619 mM	2.167 ± 0.196 nmol/min/mg	6.85 ± 0.713 mM	1.87 ± 0.95 nmol/min/mg	0.038 ± 0.004 nmol/min/mg	0.468 ± 0.109 mM	0.098 ± 0.011 nmol/min/mg	1.07 ± 0.204 mM	–	–	significantly reduced	increased	OCT1, MATE1, PMAT	OCT1, OCT3	106 ± 12.3 µM	~60%	Km [3, 13]: 4.94 ± 1.34 mM; uptake in the presence of methenamine, MCF-7 [5, 17]: increased
CN(C)C(=N)N=C(N)NS(=O)(=O)c1ccc(Br)cc1 [Compound 6]	2.06 ± 0.0584 mM	2.49 ± 0.211 mM	1.11 ± 0.16 nmol/min/mg protein	0.7898 ± 0.12 nmol/min/mg	0.308 ± 0.102 mM	13.64 ± 1.55 nmol/min/mg	8.93 ± 1.1 mM	–	2.644 ± 0.22 nmol/min/mg	1.93 ± 0.223 mM	2.091 ± 0.15 nmol/min/mg	2.11 ± 0.172 mM	4.044 ± 1.302 nmol/min/mg	3.75 ± 1.6 mM	significantly reduced	significantly decreased	OCT1, PMAT, MATE1	OCT1, OCT3, MATE1	1140 ± 139 µM	–	uptake into MDA-MB-231 cells [4]: 0.75 ± 0.29 nmol/min/mg protein; uptake in the presence of methenamine, MCF-7 [5, 17]: significantly decreased; uptake in the presence of cimetidine, MDA-MB-231 [6, 17]: significantly decreased; uptake in the presence of disopyramide, MDA-MB-231 [6, 17]: significantly decreased; uptake in the presence of methenamine, MDA-MB-231 [6, 17]: significantly decreased; IC50 [8]: 2.11 ± 0.137 mM
CN(C)C(=N)N=C(N)NS(=O)(=O)c1cccc(F)c1 [Compound 8]	7.195 ± 0.0053 mM	2.284 ± 0.014 mM	–	0.830 ± 0.171 nmol/min/mg	2.84 ± 0.778 mM	–	–	–	0.049 ± 0.025 nmol/min/mg	1.23 ± 1.31 mM	0.045 ± 0.021 nmol/min/mg	3.38 ± 2.13 mM	0.126 ± 0.032 nmol/min/mg	7.4 ± 0.51 mM	–	–	OCT1	OCT1, OCT3	171 ± 13.6 µM	~60%	uptake into MCF-7 cells at higher concentrations ([3]; concentrations above 1600 μmol/L): 8–10 nmol/min/mg of protein; transport efficacy (Vmax/Km) in MCF-7 relative to MDA-MB-231 ([4]; fold lower in MDA-MB-231 than in MCF-7): approximately 22 fold
CN(C)C(=N)N=C(N)NS(=O)(=O)c1ccc(F)cc1 [Compound 9]	1.057 ± 0.0075 mM	1.38 ± 0.014 mM	0.357 ± 0.112 nmol/min/mg protein	–	–	–	–	–	0.097 ± 0.015 nmol/min/mg	1.88 ± 0.429 mM	0.053 ± 0.012 nmol/min/mg	2.22 ± 0.618 mM	–	–	–	–	PMAT	OCT1, OCT3	422 ± 32.8 µM	~60%	uptake into MDA-MB-231 cells [4]: 0.021 ± 0.002 nmol/min/mg protein
